From PubChem BioAssay AID248 (DTP/NCI, 2004)
Toxic doses and inconclusive results are not listed. Rule as the data show it: active = T/C of 150% or more; inactive = T/C below 125%.

System: L1210 leukemia ip in BDF1 mice, survival T/C
Experiment: NCI In Vivo Anticancer Drug Screen. Data for tumor model L1210 Leukemia (intraperitoneal) in B6D2F1 (BDF1) mice
Conditions: endpoint: mean survival time, higher = longer survival
In short: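 Read-out is survival time, reported as the treated-group measurement over the vehicle-control measurement.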

[1] = dose: 100.0 mg/kg/injection, schedule: Q04DX003 (ip), vehicle: saline
[2] = dose: 200.0 mg/kg/injection, schedule: Q04DX003 (ip), vehicle: saline
[3] = dose: 400.0 mg/kg/injection, schedule: Q04DX003 (ip), vehicle: saline
[4] = dose: 100.0 mg/kg/injection, schedule: Q01DX001 (ip), vehicle: saline
[5] = dose: 200.0 mg/kg/injection, schedule: Q01DX001 (ip), vehicle: saline
[6] = dose: 100.0 mg/kg/injection, schedule: Q01DX009 (ip), vehicle: Klucel (hydroxypropylcellulose) (HPC)
[7] = dose: 200.0 mg/kg/injection, schedule: Q01DX009 (ip), vehicle: Klucel (hydroxypropylcellulose) (HPC)
[8] = dose: 400.0 mg/kg/injection, schedule: Q01DX009 (ip), vehicle: Klucel (hydroxypropylcellulose) (HPC)
[9] = dose: 100.0 mg/kg/injection, schedule: Q04DX002 (ip), vehicle: Klucel (hydroxypropylcellulose) (HPC)
[10] = dose: 200.0 mg/kg/injection, schedule: Q04DX002 (ip), vehicle: Klucel (hydroxypropylcellulose) (HPC)
[11] = dose: 400.0 mg/kg/injection, schedule: Q04DX002 (ip), vehicle: Klucel (hydroxypropylcellulose) (HPC)
[12] = dose: 100.0 mg/kg/injection, schedule: Q04DX003 (ip), vehicle: saline with Tween-80
[13] = dose: 200.0 mg/kg/injection, schedule: Q04DX003 (ip), vehicle: saline with Tween-80
[14] = dose: 100.0 mg/kg/injection, schedule: Q01DX001 (ip), vehicle: Klucel (hydroxypropylcellulose) (HPC)
[15] = dose: 100.0 mg/kg/injection, schedule: Q04DX003 (ip), vehicle: Klucel (hydroxypropylcellulose) (HPC)
[16] = dose: 200.0 mg/kg/injection, schedule: Q01DX001 (ip), vehicle: Klucel (hydroxypropylcellulose) (HPC)
[17] = dose: 200.0 mg/kg/injection, schedule: Q04DX003 (ip), vehicle: Klucel (hydroxypropylcellulose) (HPC)
[18] = dose: 400.0 mg/kg/injection, schedule: Q01DX001 (ip), vehicle: Klucel (hydroxypropylcellulose) (HPC)
[19] = dose: 400.0 mg/kg/injection, schedule: Q04DX003 (ip), vehicle: Klucel (hydroxypropylcellulose) (HPC)
[20] = dose: 100.0 mg/kg/injection, schedule: Q04DX002 (ip), vehicle: saline with Tween-80
[21] = dose: 200.0 mg/kg/injection, schedule: Q04DX002 (ip), vehicle: saline with Tween-80

Measured: T/C

CCCCCCCC/C=C\CCCCCCCC(=O)OCCCCCCCCCCCCC
inactive: dose: 100.0 mg/kg/injection, schedule: Q01DX009 (ip), vehicle: saline sonified 91 % of control | dose: 200.0 mg/kg/injection, schedule: Q01DX009 (ip), vehicle: saline sonified 102 % of control | dose: 400.0 mg/kg/injection, schedule: Q01DX009 (ip), vehicle: saline sonified 93 % of control

O=C(OCCOCCOCCOCCOCCOCCOCCOCCOCCOCCOCCOCCOCCOCCOCCOCCOCCOCCOCCOCCOCCOCCOC(=O)N1CC1)N1CC1
inactive: dose: 100.0 mg/kg/injection, schedule: Q01DX001 (ip), vehicle: acetone 94 % of control | dose: 100.0 mg/kg/injection, schedule: Q01DX009 (ip), vehicle: acetone 98 % of control | [1] 100 % of control | dose: 200.0 mg/kg/injection, schedule: Q01DX001 (ip), vehicle: acetone 94 % of control | dose: 200.0 mg/kg/injection, schedule: Q01DX009 (ip), vehicle: acetone 95 % of control | [2] 103 % of control | dose: 400.0 mg/kg/injection, schedule: Q01DX001 (ip), vehicle: acetone 97 % of control | [3] 108 % of control

CCCCCCCCCCSc1ncnc2c1ncn2CO
inactive: dose: 50.0 mg/kg/injection, schedule: Q01DX001 (ip), vehicle: saline 91 % of control | [4] 101 % of control | [5] 117 % of control | dose: 400.0 mg/kg/injection, schedule: Q01DX001 (ip), vehicle: saline 120 % of control

Cc1ccc(C(C)C)cc1N1C(=O)C2C(C1=O)C1(Cl)C(Cl)=C(Cl)C2(Cl)C1(Cl)Cl (stereo unspecified)
inactive: [6] 92 % of control | [7] 97 % of control | [8] 91 % of control

CCCCNC(=O)OCC(C)(CCC)COC(N)=O (stereo unspecified)
inactive: dose: 25.0 mg/kg/injection, schedule: Q01DX009 (ip), vehicle: saline 101 % of control | dose: 25.0 mg/kg/injection, schedule: Q04DX003 (ip), vehicle: saline 95 % of control | dose: 50.0 mg/kg/injection, schedule: Q01DX009 (ip), vehicle: saline 101 % of control | dose: 50.0 mg/kg/injection, schedule: Q04DX003 (ip), vehicle: saline 95 % of control | dose: 100.0 mg/kg/injection, schedule: Q01DX009 (ip), vehicle: saline 109 % of control | [1] 101 % of control | dose: 200.0 mg/kg/injection, schedule: Q01DX009 (ip), vehicle: saline 104 % of control | [2] 95 % of control | dose: 400.0 mg/kg/injection, schedule: Q01DX009 (ip), vehicle: saline 103 % of control | [3] 95 % of control

CCNC(=O)OCC1C2CCC(O2)C1COC(=O)NCC (stereo unspecified)
inactive: [9] 101 % of control | [10] 98 % of control | [11] 98 % of control

CC(C)CCNC(=O)NS(=O)(=O)c1ccc(Cl)cc1
inactive: [12] 107 % of control | [13] 97 % of control | dose: 400.0 mg/kg/injection, schedule: Q04DX003 (ip), vehicle: saline with Tween-80 100 % of control

O=C(O)CSc1ccc([N+](=O)[O-])cc1[N+](=O)[O-]
inactive: [9] 100 % of control | [10] 96 % of control | [11] 96 % of control

C=C(C)C1Cc2c(ccc3c(=O)c4c(oc23)COc2cc(OC)c(OC)cc2-4)O1 (stereo unspecified)
inactive: [6] 90 % of control | [7] 93 % of control | [8] 95 % of control

NOCc1cc2c(cc1Cl)OCO2
inactive: [14] 94 % of control | [6] 94 % of control | [15] 90 % of control | [16] 88 % of control | [7] 92 % of control | [17] 96 % of control | [18] 100 % of control | [8] 86 % of control | [19] 96 % of control

CSc1cccc(NC(=O)Nc2ccc(Cl)cc2)c1
inactive: [20] 104 % of control | [21] 93 % of control | dose: 400.0 mg/kg/injection, schedule: Q04DX002 (ip), vehicle: saline with Tween-80 89 % of control

C=CCSc1ccccc1C
inactive: [4] 95 % of control | [5] 95 % of control

CC(=O)Oc1ccc(OC(C)=O)c2c1C(=O)C=CC2=O
inactive: dose: 0.78 mg/kg/injection, schedule: Q04DX002 (ip), vehicle: alcohol 110 % of control | dose: 1.56 mg/kg/injection, schedule: Q04DX002 (ip), vehicle: alcohol 100 % of control | dose: 3.12 mg/kg/injection, schedule: Q04DX002 (ip), vehicle: alcohol 106 % of control | dose: 6.25 mg/kg/injection, schedule: Q04DX002 (ip), vehicle: alcohol 93 % of control | [4] 107 % of control

[O-][N+](=Nc1cccc(Cl)c1)c1cccc(Cl)c1
inactive: dose: 50.0 mg/kg/injection, schedule: Q01DX009 (ip), vehicle: saline with Tween-80 97 % of control | dose: 50.0 mg/kg/injection, schedule: Q04DX003 (ip), vehicle: saline with Tween-80 102 % of control | dose: 100.0 mg/kg/injection, schedule: Q01DX009 (ip), vehicle: saline with Tween-80 101 % of control | [12] 98 % of control | dose: 200.0 mg/kg/injection, schedule: Q01DX009 (ip), vehicle: saline with Tween-80 97 % of control | [13] 112 % of control

COc1cc(-c2ccc(N=Nc3nc4nc(N)nc(O)c4[nH]3)c(OC)c2)ccc1N=Nc1nc2nc(N)nc(O)c2[nH]1
inactive: [15] 97 % of control | [17] 100 % of control | [19] 97 % of control

Cc1ccc(N=Cc2cccc([N+](=O)[O-])c2)cc1
inactive: [14] 100 % of control | [15] 98 % of control | [16] 94 % of control | [17] 100 % of control | [18] 91 % of control | [19] 103 % of control

O=C1OC(c2ccccc2)=N/C1=C\c1ccccc1Cl
inactive: [20] 87 % of control | [21] 94 % of control
